The subject of data set [1] is Mus musculus. The data set can be described thus: Antinociceptive activity in albino ICR mouse assessed as decrease in number of acetic acid-induced abdominal constriction at 25 to 100 ug/mouse, icv administered 5 mins prior to acetic acid challenge and measured every 5 mins for 30 mins post acetic acid challenge. In kind it is functional, organism-based.
Data set [2] in a line: Anodic potential of the compound at pH 10.20 by differential pulse voltammetry. Particulars: pH 10.2. In kind it is physicochemical.
A short description of data set [3]: Anodic potential of the compound at pH 6.02 by differential pulse voltammetry. In kind it is physicochemical.
Data set [4] in a line: Anodic potential of the compound at pH 6.86 by differential pulse voltammetry. In kind it is physicochemical.
The nature of data set [5]: Anodic potential of the compound at pH 5.02 by differential pulse voltammetry. Format: physicochemical.
Data set [6] is described as follows: Anodic potential of the compound at pH 8.10 by differential pulse voltammetry. Particulars: pH 8.1. In kind it is physicochemical.
Data set [7] is described as follows: Anodic potential of the compound at pH 9.20 by differential pulse voltammetry. In kind it is physicochemical. Particulars: pH 9.2.
Data set [8] can be described thus: Dissociation constant, pKa of the compound at pH 5.02 to 10.20 by cyclic voltammetry. In kind it is physicochemical.
For data set [9], the system named is Mus musculus. The data set can be described thus: Antinociceptive activity in albino ICR mouse assessed as decrease in number of acetic acid-induced abdominal constriction at 100 ug/mouse, icv administered 5 mins prior to acetic acid challenge and measured every 5 mins for 10 mins post acetic acid challenge. In kind it is functional, organism-based.
For data set [10], the system named is Mus musculus. The data set can be described thus: Antinociceptive activity in albino ICR mouse assessed as decrease in number of acetic acid-induced abdominal constriction at 25 to 50 ug/mouse, icv administered 5 mins prior to acetic acid challenge and measured every 5 mins for 30 mins post acetic acid challenge. In kind it is functional, organism-based.
Data set [11] deals with Mus musculus. Briefly: Antinociceptive activity in albino ICR mouse assessed as decrease in number of acetic acid-induced abdominal constriction at 100 ug/mouse, icv administered 5 mins prior to acetic acid challenge and measured every 5 mins for 15 mins post acetic acid challenge. In kind it is functional, organism-based.
For data set [12], the system named is Mus musculus. The data set can be described thus: Antinociceptive activity in albino ICR mouse assessed as decrease in number of acetic acid-induced abdominal constriction at 100 ug/mouse, icv administered 5 mins prior to acetic acid challenge and measured at 5 mins post acetic acid challenge. In kind it is functional, organism-based.
The subject of data set [13] is Mus musculus. The data set can be described thus: Antinociceptive activity in albino ICR mouse assessed as decrease in number of acetic acid-induced abdominal constriction at 25 ug/mouse, icv administered 5 mins prior to acetic acid challenge and measured every 5 mins for 30 mins post acetic acid challenge. Format: functional, organism-based.
Data set [14] relates to Mus musculus. The data set can be described thus: Antinociceptive activity in albino ICR mouse assessed as decrease in number of acetic acid-induced abdominal constriction at 50 to 100 ug/mouse, icv administered 5 mins prior to acetic acid challenge and measured every 5 mins for 30 mins post acetic acid challenge. In kind it is functional, organism-based.
The subject of data set [15] is Mus musculus. Briefly: Antinociceptive activity in albino ICR mouse assessed as decrease in number of acetic acid-induced abdominal constriction at 50 ug/mouse, icv administered 5 mins prior to acetic acid challenge and measured every 5 mins for 30 mins post acetic acid challenge. In kind it is functional, organism-based.

The source made the active and inactive calls. No cut-off for these calls is given here. Square brackets hold non-standard residues; d marks the D form. Peptide text beside a SMILES is read from it. Aib = CC(C)(N)C(=O)O

Regarding `CC(C)[C@H](N)C(=O)N[C@H](C(=O)N[C@@H](Cc1ccc(O)cc1)C(=O)N1CCC[C@H]1C(=O)N[C@@H](Cc1c[nH]c2ccccc12)C(=O)N[C@H](C(=O)N[C@H](CN)C(N)=O)[C@@H](C)O)C(C)C`, the outcome in the data set with Mus musculus [1] was Active.

In general, pKa refers to the pH at which an ionisable group is half protonated. A lower pKa goes with a stronger acid or weaker base. Turning to `CC(C)[C@H](N)C(=O)N[C@H](C(=O)N[C@@H](Cc1ccc(O)cc1)C(=O)N1CCC[C@H]1C(=O)N[C@@H](Cc1c[nH]c2ccccc12)C(=O)N[C@H](C(=O)N[C@@H](CCN)C(N)=O)[C@@H](C)O)C(C)C`, the Activity in [2] is given as 0 V; in data set [3], 0.13 V; in [4], 0.07 V; in data set [5], 0.23 V; in data set [6], 0.009 V; in data set [7], 0.001 V. The pKa in data set [8] amounted to 8.12.

On to `CC[C@H](C)[C@@H](N)C(=O)N[C@H](C(=O)N[C@H](C(=O)N[C@@H](Cc1ccc(O)cc1)C(=O)N1CCC[C@H]1C(=O)N[C@@H](Cc1c[nH]c2ccccc12)C(=O)N[C@H](C(=O)N[C@@H](CCC(N)=O)C(N)=O)[C@@H](C)O)C(C)C)C(C)C`, for which the outcome with Mus musculus [9] was inactive. Moreover, the Activity result in the data set on Mus musculus [10] is “Dose-dependent effect”.

In the case of `CC(C)[C@H](N)C(=O)N[C@H](C(=O)N[C@@H](Cc1ccc(O)cc1)C(=O)N1CCC[C@H]1C(=O)N[C@@H](Cc1c[nH]c2ccccc12)C(=O)N[C@H](C(=O)N[C@@H](CN)C(N)=O)[C@@H](C)O)C(C)C`, the Activity in data set [2] was determined as 0.001 V; in [3], 0.207 V; in data set [4] it was 0.15 V; in [5], 0.225 V; in data set [6], 0.085 V; in data set [7] it was 0.008 V. This compound had a pKa in [8] of 9.23.

As for `CC[C@H](C)[C@H](N)C(=O)N[C@H](C(=O)N[C@H](C(=O)N[C@@H](Cc1ccc(O)cc1)C(=O)N1CCC[C@H]1C(=O)N[C@@H](Cc1c[nH]c2ccccc12)C(=O)N[C@H](C(=O)N[C@@H](CCC(N)=O)C(N)=O)[C@@H](C)O)C(C)C)C(C)C`, the Activity in data set [2] worked out at 0.06 V; in data set [3], 0.16 V; in data set [4], 0.11 V; in data set [5] it was 0.213 V; in data set [6], 0.062 V; in data set [7], 0.067 V. This compound displayed a pKa in data set [8] of 8.01.

As for `CC(C)[C@H](N)C(=O)N[C@H](C(=O)N[C@@H](Cc1ccc(O)cc1)C(=O)N1CCC[C@H]1C(=O)N[C@@H](Cc1c[nH]c2ccccc12)C(=O)N[C@H](C(=O)N[C@H](CCN)C(N)=O)[C@@H](C)O)C(C)C`, in the data set with Mus musculus [11], the outcome was inactive. In addition, in the data set with Mus musculus [12], the result was Active. For the same compound, the Activity entry in the data set with Mus musculus [10] was “Dose-dependent effect”.

For `CC(C)[C@H](N)C(=O)N[C@H](C(=O)N[C@@H](Cc1ccc(O)cc1)C(=O)N1CCC[C@H]1C(=O)N[C@@H](Cc1c[nH]c2ccccc12)C(=O)N[C@H](C(=O)N[C@@H](CCCCN)C(N)=O)[C@@H](C)O)C(C)C`, the Activity in data set [2] came to 0.057 V; in [3], 0.15 V; in data set [4] it was 0.125 V; in [5], 0.211 V; in [6], 0.071 V; in [7], 0.055 V. This compound also showed a pKa in [8] of 8.24.

In the case of `CC(C)[C@H](N)C(=O)N[C@H](C(=O)N[C@@H](Cc1ccc(O)cc1)C(=O)N1CCC[C@H]1C(=O)N[C@@H](Cc1c[nH]c2ccccc12)C(=O)N[C@H](C(=O)N[C@H](CCCCN)C(N)=O)[C@@H](C)O)C(C)C`, the result in the data set on Mus musculus [9] and with Mus musculus [13] was Active.

In the case of H-VVYPWTQ-NH2, the Activity in [2] was determined as 0.046 V; in data set [3], 0.151 V; in [4], 0.048 V; in data set [5], 0.225 V; in data set [6], 0.046 V; in [7] it was 0.046 V. Besides, in the data set on Mus musculus [13], the outcome was inactive. For the same compound, the outcome with Mus musculus [14] was Active. In addition, the pKa in data set [8] was 7.13.

As to `CC(C)[C@H](N)C(=O)N[C@H](C(=O)N[C@@H](Cc1ccc(O)cc1)C(=O)N1CCC[C@H]1C(=O)N[C@@H](Cc1c[nH]c2ccccc12)C(=O)N[C@H](C(=O)N[C@@H](CCCN)C(N)=O)[C@@H](C)O)C(C)C`, the Activity in data set [2] is listed as 0.079 V; in data set [3], 0.175 V; in data set [4] it was 0.117 V; in data set [5], 0.225 V; in data set [6], 0.075 V; in [7] it was 0.082 V. The same compound came in with a pKa in data set [8] of 7.83.

Turning to `CC(C)[C@H](N)C(=O)N[C@H](C(=O)N[C@@H](Cc1ccc(O)cc1)C(=O)N1CCC[C@H]1C(=O)N[C@@H](Cc1c[nH]c2ccccc12)C(=O)N[C@H](C(=O)N[C@H](CCCN)C(N)=O)[C@@H](C)O)C(C)C`, the result in the data set on Mus musculus [13] was inactive. Moreover, the outcome in the data set on Mus musculus [15] was Active.

`CC(C)[C@H](NC(=O)[C@@H](NC(=O)C(C)(C)N)C(C)C)C(=O)N[C@@H](Cc1ccc(O)cc1)C(=O)N1CCC[C@H]1C(=O)N[C@@H](Cc1c[nH]c2ccccc12)C(=O)N[C@H](C(=O)N[C@@H](CCC(N)=O)C(N)=O)[C@@H](C)O` (H-[Aib]VVYPWTQ-NH2): the Activity in data set [2] is reported as 0.03 V; in data set [3] it was 0.175 V; in [4], 0.101 V; in data set [5], 0.232 V; in data set [6], 0.025 V; in data set [7], 0.031 V. For the same compound, the outcome in the data set with Mus musculus [1] was inactive. The pKa in data set [8] was 8.17.

Values taken from ChEMBL document CHEMBL4229501, “Synthesis, characterization and nociceptive screening of new VV-hemorphin-5 analogues” (Bioorg Med Chem Lett, 2018).
